# According to publication PMC6389703, “Identification of Biologically Active Ganoderma lucidum Compounds and Synthesis of Improved Derivatives That Confer Anti-cancer Activities in vitro” (Frontiers in Pharmacology, 2019):
# Read-outs that look alike come from different tables or passages of the source.
# How the values were obtained:
# SUM-149 cells [1] = assay: Cell viability assay, SUM-149; type: cell-based, human; settings: for EC50: Homo sapiens, read-out: EC50, SUM-149 cell viability
# Method: Either 1 × 10^3–4.8 × 10^3 or 4 × 10^2–1.2 × 10^3 cells were seeded to each well of 96- or 384-well white polystyrene flat-bottomed plates (3610 or 8804BC, Corning) in 100 μL or 30 μL media per well, respectively. The concentrations used were experimentally determined to ensure logarithmic growth during the duration of the experiment and prevent adverse effects on cell growth by DMSO exposure. The plates were incubated at 37°C in 5% CO2 for 24 h before treatment. Stock solutions of test compounds (10 mM in DMSO) in nine 3-fold serial dilutions were dispensed via pintool (Biomek). The final concentration of DMSO was 0.3% (v/v) in each well. The plates were incubated for 72 h at 37°C in 5% CO2 and then quenched with CellTiter-Glo® reagent (50 μL/well in 96-well plate, 30 μL/well in 384-well plate) at RT. The positive controls included staurosporine (10 μM), gambogic acid (10 μM), and a toxic quinoline generated in-house. Plates were then incubated at RT for 20 min and centrifuged at 1000 rpm for 1 min. The cytotoxicity assay was performed by using the CellTiter-Glo® Luminescent Cell Viability Assay kit (G7570, Promega, Madison, WI, United States) according to the manufacturer’s instructions. Luminescence was recorded in an Envision plate reader (PerkinElmer).
# Cell viability assays (MTT or PI staining assays) in SUM-149, SUM-190, MDA-MB-231, and MCF10A cells were performed as we previously described ([Suarez-Arroyo et al., 2016]).
# (§1) For the CTG assay, 3 or 4 replicate assays were conducted for each experimental condition, and a minimum of 3 independent experiments were conducted for cellular assays. The mean luminescence of each experimental treatment group was normalized as a percentage of the mean intensity of untreated controls. EC50 values (μM) were calculated by Pipeline Pilot Software (Accelrys, Enterprise Platform, San Diego, CA, United States). EC50 values (μM) from the viability assay were calculated from dose response curve-fitting via non-linear regression by using GraphPad Prism (Version 7.0, San Diego, CA, United States). For cell viability, colony formation, cell-cycle progression, cell death, and western blot assays, the analyses were performed via one-way or two-way ANOVA with post-testing for each condition (concentration, cell cycle stage, apoptotic event, cell line) by using GraphPad Prism.
# SUM-190 cells = assay: Cell viability assay, SUM-190; type: cell-based; settings: Homo sapiens, SUM190; Figure 4E
# Method: Either 1 × 10^3–4.8 × 10^3 or 4 × 10^2–1.2 × 10^3 cells were seeded to each well of 96- or 384-well white polystyrene flat-bottomed plates (3610 or 8804BC, Corning) in 100 μL or 30 μL media per well, respectively. The concentrations used were experimentally determined to ensure logarithmic growth during the duration of the experiment and prevent adverse effects on cell growth by DMSO exposure. The plates were incubated at 37°C in 5% CO2 for 24 h before treatment. Stock solutions of test compounds (10 mM in DMSO) in nine 3-fold serial dilutions were dispensed via pintool (Biomek). The final concentration of DMSO was 0.3% (v/v) in each well. […] Luminescence was recorded in an Envision plate reader (PerkinElmer). […]
# as §1, with “For cell viability, colony formation, cell-cycle progression, cell death, and western blot assays, the analyses were performed via one-way or two-way ANOVA with post-testing for each condition (concentration, cell cycle stage, apoptotic event, cell line) by using GraphPad Prism.” left out
# BCR-ABL cells = assay: Cell Titer Glo viability assay, BCR-ABL; type: cell-based, murine; settings: Mus musculus, 72-h treatment
# Method: (§2) Either 1 × 10^3–4.8 × 10^3 or 4 × 10^2–1.2 × 10^3 cells were seeded to each well of 96- or 384-well white polystyrene flat-bottomed plates (3610 or 8804BC, Corning) in 100 μL or 30 μL media per well, respectively. The concentrations used were experimentally determined to ensure logarithmic growth during the duration of the experiment and prevent adverse effects on cell growth by DMSO exposure. The plates were incubated at 37°C in 5% CO2 for 24 h before treatment. Stock solutions of test compounds (10 mM in DMSO) in nine 3-fold serial dilutions were dispensed via pintool (Biomek). The final concentration of DMSO was 0.3% (v/v) in each well. […] Luminescence was recorded in an Envision plate reader (PerkinElmer).
# as §1, with “For cell viability, colony formation, cell-cycle progression, cell death, and western blot assays, the analyses were performed via one-way or two-way ANOVA with post-testing for each condition (concentration, cell cycle stage, apoptotic event, cell line) by using GraphPad Prism.” left out
# Uocb-1 cells = assay: Cell Titer Glo viability assay, Uocb-1; type: cell-based; settings: Homo sapiens, UoC-B1, 72-h treatment
# Method: as §2
# as §1, with “For cell viability, colony formation, cell-cycle progression, cell death, and western blot assays, the analyses were performed via one-way or two-way ANOVA with post-testing for each condition (concentration, cell cycle stage, apoptotic event, cell line) by using GraphPad Prism.” left out
# [2] = system: additional cancer cellular models; assay: Cell viability, additional cancer cellular models; type: cell-based; settings: Supplementary Figure S2
# Method: as §2
# as §1, with “For cell viability, colony formation, cell-cycle progression, cell death, and western blot assays, the analyses were performed via one-way or two-way ANOVA with post-testing for each condition (concentration, cell cycle stage, apoptotic event, cell line) by using GraphPad Prism.” left out
# SUM-149 cells [3] = assay: ApoTox-Glo Triplex assay, SUM-149; type: cell-based, human; settings: SUM-149, 24 h
# Method: (§3) Cells (9.5 × 10^4/well in 75 μL of fresh medium) were dispensed in 96-well black flat bottom (8807BC, Corning) plates. The cells were incubated for 12 h at 37°C and then treated with compounds (25 μL) for 24 h. DMSO was used as a negative control, and staurosporine was used as the positive control. […] Then, the Caspase-Glo® 3/7 Reagent was added; plates were mixed briefly by orbital shaking (300-500 rpm for ∼30 s), followed by an additional 30 min incubation at RT. Then luminescence, which correlates with caspase 3/7 activation, was recorded with a plate reader to […] apoptosis induction.
# MDA-MB-231 cells [4] = assay: ApoTox-Glo Triplex assay, MDA-MB-231; type: cell-based, human
# Method: as §3
# MDA-MB-231 cells [5] = assay: ROS measurement (CellROX green), MDA-MB-231; type: cell-based, human; settings: EP 20 μM, 1 h
# Method: SUM-149 or MDA-MB-231 were plated in 96-well plates at a density of 2 × 10^4 and 1 × 10^4 cells/well, respectively, in black 96-well clear bottom tissue culture plates and incubated for 24 h at 37°C. The mRuby-Mito-7 plasmid was obtained from Addgene (#55874 from Michael Davidson). A stable clone of MCF-7 was generated by using Fugene 6 (Roche) to transfect cells (2 × 10^5) with plasmid (2.0 μg) under neomycin selection. A stable cell line was selected by using G418 (300 μg/mL) for 2 weeks, sorted by flow cytometry, and maintained under G418 thereafter. Transfected MCF-7 cells were plated at a density of 2 × 10^4 cells/well in black 96-well clear bottom tissue culture plates and incubated overnight at 37°C. To test for ROS formation and remove background, cells were replenished with fresh PBS with 2% FBS and treated with the desired compounds for 1 h at 37°C. DMSO (0.5%) was used as a negative control, while Menadione (Mena, at 10 μM) or t-Butyl hydroperoxide (TBHP) at 100 μM final concentration were used as a positive control. To evaluate the compounds’ effects on ROS formation inhibition, the free radical scavenger N-acetyl cysteine (NAC) was used. […] Fluorescence intensity was measured in a Clariostar® plate reader (BMG LABTECH, Cary, NC, United States) at 535 nm.
# SUM-149 cells [6] = assay: ROS measurement (CellROX green), SUM-149; type: cell-based, human; settings: EP 20 μM
# Method: (§4) SUM-149 or MDA-MB-231 were plated in 96-well plates at a density of 2 × 10^4 and 1 × 10^4 cells/well, respectively, in black 96-well clear bottom tissue culture plates and incubated for 24 h at 37°C. The mRuby-Mito-7 plasmid was obtained from Addgene (#55874 from Michael Davidson). A stable clone of MCF-7 was generated by using Fugene 6 (Roche) to transfect cells (2 × 10^5) with plasmid (2.0 μg) under neomycin selection. A stable cell line was selected by using G418 (300 μg/mL) for 2 weeks, sorted by flow cytometry, and maintained under G418 thereafter. Transfected MCF-7 cells were plated at a density of 2 × 10^4 cells/well in black 96-well clear bottom tissue culture plates and incubated overnight at 37°C. To test for ROS formation and remove background, cells were replenished with fresh PBS with 2% FBS and treated with the desired compounds for 1 h at 37°C. DMSO (0.5%) was used as a negative control, while Menadione (Mena, at 10 μM) or t-Butyl hydroperoxide (TBHP) at 100 μM final concentration were used as a positive control. To evaluate the compounds’ effects on ROS formation inhibition, the free radical scavenger N-acetyl cysteine (NAC) was used. Cells were treated with or without NAC (500 μM or 100 μM) for 1 h, then CellROX® green reagent (Molecular Probes #C10444) was added to a final concentration of 5 μM, and cells were incubated for an additional 30 min at 37°C. Cells were then washed 2× with PBS, followed by fixation with 4% paraformaldehyde (v/v) for 15 min, and 2 more washes with PBS. Fluorescence intensity was measured in a Clariostar® plate reader (BMG LABTECH, Cary, NC, United States) at 535 nm.
# MCF-7 cells = assay: ROS measurement (CellROX green), MCF-7; type: cell-based, human
# Method: as §4
# SUM-149 cells [7] = assay: Matrigel invasion assay (Transwell); type: cell-based, human; settings: 72 h
# Method: Cell migration and invasion were measured by using Corning® FluoroBlok^TM Cell Culture Inserts and performing BD BioCoat Matrigel invasion assays (BD Biosciences, San José, CA, United States) as described in [Martinez-Montemayor et al. (2011)] and [Suarez-Arroyo et al. (2016)].
smiles,measurement,setting,value
"CC(C)[C@@H](C)/C=C/[C@@H](C)[C@H]1CC[C@@H]2[C@]1(C)CC[C@H]1[C@]23C=C[C@]2(C[C@@H](O)CC[C@]12C)OO3 [EP, ergosterol peroxide]",concentration at which SUM-149 cell viability is significantly reduced,SUM-149 cells [1]; 72 h,8 µM
same,EC50,"SUM-149 cells [1]; SUM149, 24 h",34 µM
same,EC50,"SUM-149 cells [1]; SUM149, 72 h",20 µM
same,EC50,SUM-190 cells,43 µM
same,EC50,BCR-ABL cells,6.9 µM
same,EC50,Uocb-1 cells,13.6 µM
same,EC50,[2],7 to 22 µM
same,caspase 3/7 activity,SUM-149 cells [3],increase caspase 3/7 activity
same,viability (GF-AFC),SUM-149 cells [3],decrease viability
same,cytotoxicity by membrane integrity,MDA-MB-231 cells [4]; MDA-MB-231,increased cytotoxicity
same,caspase 3/7 activity,"MDA-MB-231 cells [4]; MDA-MB-231, 24 h",increase caspase 3/7 activity
same,viability (GF-AFC),"MDA-MB-231 cells [4]; MDA-MB-231, 24 h",decrease viability
same,ROS formation (fold),MDA-MB-231 cells [5],twofold
same,ROS formation (fold),SUM-149 cells [6]; 1 h,fourfold
same,reduction in ROS formation in the presence of NAC,"SUM-149 cells [6]; NAC 500 μM, menadione 10 μM",about 20%
same,ROS increase (fold),"MCF-7 cells; GA-01, ergosterol, 5,6-dehydroergosterol 50 µM, EP 20 µM",at least a twofold
same,ROS formation reduction when co-treated with NAC,"MCF-7 cells; NAC 100 µM, TBHP 100 µM",9–25%
same,invading cells,SUM-149 cells [7]; 10 μM,significant reduction
same,decrease in invasion,SUM-149 cells [7]; 15 μM,43%
